From patent publication US20260226086A1, “COMPOUNDS AND COMPOSITIONS AS STAT3 DEGRADERS AND USES THEREOF” (REGENTS OF THE UNIVERSITY OF MICHIGAN, priority 2023, published 2026) come the findings set out here.

Holding throughout (assay type): cell-based
In one assay the target is T1, STAT3 (Homo sapiens, UniProt P40763).
T1 construct: This cell line is a clone created by using CRISPR-Cas9 to fuse HiBiT to the 3′ end of STAT3 in HeLa cells; host or cells: STAT3-HiBiT KI HeLa cell line (CRISPR-Cas9 knock-in clone)
Description: HiBiT assay, STAT3 degradation in STAT3-HiBiT KI HeLa cells. Particulars: for DC50: read-out: STAT3 Degradation (HeLa 24 h HiBit) DC50. An outline of the steps: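 Luminescence of endogenous HiBiT-tagged STAT3 (C-terminal knock-in, HeLa) was measured with lytic Nano-Glo detection after 24 h exposure to serially diluted compounds at 37 °C. Cells plated at 20000/well; untreated cells served as control, and triplicate means were fit by four-parameter regression to give IC50.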

The subject of another assay is SU-DHL-1 cells. Briefly: CellTiter-Glo 2.0 cell viability assay, SU-DHL-1. The following applies: 4 days. Put shortly:
(§1)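 IC50 derived by four-parameter nonlinear regression on triplicate luminescence data (CellTiter-Glo 2.0), normalised to untreated controls. Cells plated at 1000/well received serial compound dilutions for 4 days at 37 °C with 5% CO2.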
(In general: Cellular ATP, detected with luciferase, serves as a proxy for viable cell number.)

Another assay concerns SUP-M2 cells. Description: CellTiter-Glo 2.0 cell viability assay, SUP-M2. The following applies: 4 days. Put shortly: as §1

Structures are written as SMILES. Where two headings read alike, the source gives them in different places.

T1 sequence (P40763 whole entry): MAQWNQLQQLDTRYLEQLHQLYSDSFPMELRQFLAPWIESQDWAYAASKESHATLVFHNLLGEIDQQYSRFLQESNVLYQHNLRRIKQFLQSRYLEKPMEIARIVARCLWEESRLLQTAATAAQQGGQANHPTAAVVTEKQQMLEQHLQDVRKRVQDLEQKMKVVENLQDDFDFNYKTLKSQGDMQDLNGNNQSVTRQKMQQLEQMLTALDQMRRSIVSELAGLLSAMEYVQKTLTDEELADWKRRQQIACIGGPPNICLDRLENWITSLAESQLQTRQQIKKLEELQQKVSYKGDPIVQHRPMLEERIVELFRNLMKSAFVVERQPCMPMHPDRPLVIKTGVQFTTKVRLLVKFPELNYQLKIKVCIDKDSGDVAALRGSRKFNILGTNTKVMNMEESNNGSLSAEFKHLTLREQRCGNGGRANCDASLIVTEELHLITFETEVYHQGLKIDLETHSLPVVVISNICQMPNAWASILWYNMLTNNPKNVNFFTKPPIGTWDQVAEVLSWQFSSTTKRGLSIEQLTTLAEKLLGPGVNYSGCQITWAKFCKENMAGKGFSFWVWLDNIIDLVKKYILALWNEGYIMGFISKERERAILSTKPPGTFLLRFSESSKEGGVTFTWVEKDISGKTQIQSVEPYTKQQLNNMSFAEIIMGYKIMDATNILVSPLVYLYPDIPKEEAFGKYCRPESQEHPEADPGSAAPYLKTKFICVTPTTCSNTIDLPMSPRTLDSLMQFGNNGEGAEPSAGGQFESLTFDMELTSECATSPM

As to `CCS(=O)(=O)c1ccc(CNC(=O)[C@H](CCC(N)=O)NC(=O)[C@@H]2CC[C@@H]3CCN(C(=O)CCCCCc4cn([C@H](C(=O)N5C[C@H](O)C[C@H]5C(=O)N[C@@H](C)c5ccc(-c6scnc6C)cc5)C(C)(C)C)nn4)C[C@H](NC(=O)c4cc5cc(C(=O)P(=O)(O)O)ccc5[nH]4)C(=O)N32)cc1` [Compound 14, (2-(((5S,8S,10aR)-8-(((S)-5-amino-1-((4-(ethylsulfonyl)benzyl)amino)-1,5-dioxopentan-2-yl)carbamoyl)-3-(6-(1-((S)-1-((2S,4R)-4-hydroxy-2-(((S)-1-(4-(4-methylthiazol-5-yl)phenyl)ethyl)carbamoyl)pyrrolidin-1-yl)-3,3-dimethyl-1-oxobutan-2-yl)-1H-1,2,3-triazol-4-yl)hexanoyl)-6-oxodecahydropyrrolo[1,2-a][1,5]diazocin-5-yl)carbamoyl)-1H-indole-5-carbonyl)phosphonic acid], the Dmax – broadly, the largest share of the target that was removed – at 1 µM at STAT3 (24 h, @1 μM) is more than 80%. Moreover, at STAT3 (24 h), the DC50 (commonly the concentration at which degradation of the target reaches its halfway point) is less than 0.01 µM. Also, the IC50 (commonly the concentration needed to halve the response being measured) in the assay with SU-DHL-1 cells (Homo sapiens, 96 h) is less than 0.01 µM; with SUP-M2 cells (SUP-M2, 96 h), less than 0.01 µM.

With `Cc1ncsc1-c1ccc([C@H](C)NC(=O)[C@@H]2C[C@@H](O)CN2C(=O)[C@@H](n2cc(CCCCCCCC(=O)N3CC[C@H]4CC[C@@H](C(=O)N[C@@H](CCC(N)=O)C(=O)NC(c5ccccc5)c5ccccc5)N4C(=O)[C@@H](NC(=O)c4cc5cc(C(=O)P(=O)(O)O)ccc5[nH]4)C3)nn2)C(C)(C)C)cc1` [Compound 60, (2-(((5S,8S,10aR)-8-(((S)-5-amino-1-(benzhydrylamino)-1,5-dioxopentan-2-yl)carbamoyl)-3-(8-(1-((S)-1-((2S,4R)-4-hydroxy-2-(((S)-1-(4-(4-methylthiazol-5-yl)phenyl)ethyl)carbamoyl)pyrrolidin-1-yl)-3,3-dimethyl-1-oxobutan-2-yl)-1H-1,2,3-triazol-4-yl)octanoyl)-6-oxodecahydropyrrolo[1,2-a][1,5]diazocin-5-yl)carbamoyl)-1H-indole-5-carbonyl)phosphonic acid], the DC50 at STAT3 (24 h) was more than 1 µM. Besides, the IC50 is more than 1 µM in the assay on SU-DHL-1 cells (Homo sapiens, 96 h) and more than 1 µM in the assay on SUP-M2 cells (SUP-M2, 96 h).

Turning to `Cc1ncsc1-c1ccc([C@H](C)NC(=O)[C@@H]2C[C@@H](O)CN2C(=O)[C@@H](n2cc(CCCCCCC(=O)N3CC[C@H]4CC[C@@H](C(=O)N[C@@H](CCC(N)=O)C(=O)NC(c5ccccc5)c5ccccc5)N4C(=O)[C@@H](NC(=O)c4cc5cc(C(=O)P(=O)(O)O)ccc5[nH]4)C3)nn2)C(C)(C)C)cc1` [Compound 59, (2-(((5S,8S,10aR)-8-(((S)-5-amino-1-(benzhydrylamino)-1,5-dioxopentan-2-yl)carbamoyl)-3-(7-(1-((S)-1-((2S,4R)-4-hydroxy-2-(((S)-1-(4-(4-methylthiazol-5-yl)phenyl)ethyl)carbamoyl)pyrrolidin-1-yl)-3,3-dimethyl-1-oxobutan-2-yl)-1H-1,2,3-triazol-4-yl)heptanoyl)-6-oxodecahydropyrrolo[1,2-a][1,5]diazocin-5-yl)carbamoyl)-1H-indole-5-carbonyl)phosphonic acid], the DC50 at STAT3 was more than 1 µM. Further, the IC50 was more than 1 µM with SU-DHL-1 cells (Homo sapiens, 96 h) and more than 1 µM in the assay on SUP-M2 cells (SUP-M2, 96 h).

For `Cc1ncsc1-c1ccc([C@H](C)NC(=O)[C@@H]2C[C@@H](O)CN2C(=O)[C@@H](n2cc(CCCCC(=O)N3CC[C@H]4CC[C@@H](C(=O)N[C@@H](CCC(N)=O)C(=O)NC(c5ccccc5)c5ccccc5)N4C(=O)[C@@H](NC(=O)c4cc5cc(C(=O)P(=O)(O)O)ccc5[nH]4)C3)nn2)C(C)(C)C)cc1` [Compound 57, (2-(((5S,8S,10aR)-8-(((S)-5-amino-1-(benzhydrylamino)-1,5-dioxopentan-2-yl)carbamoyl)-3-(5-(1-((S)-1-((2S,4R)-4-hydroxy-2-(((S)-1-(4-(4-methylthiazol-5-yl)phenyl)ethyl)carbamoyl)pyrrolidin-1-yl)-3,3-dimethyl-1-oxobutan-2-yl)-1H-1,2,3-triazol-4-yl)pentanoyl)-6-oxodecahydropyrrolo[1,2-a][1,5]diazocin-5-yl)carbamoyl)-1H-indole-5-carbonyl)phosphonic acid], on STAT3 (24 h), the DC50 lay in the range of 0.1 to 1 µM. Besides, the IC50 in the assay with SU-DHL-1 cells and in the assay with SUP-M2 cells was 0.1 to 1 µM each time.
